Results as given in US20200288710A1, “SUBSTITUTED SULPHONAMIDES FOR CONTROLLING ANIMAL PESTS” (BAYER CROPSCIENCE AKTIENGESELLSCHAFT, priority 2016, published 2020).

Experiments:
Type in all cases: in vivo
[1] = test system: Meloidogyne incognita; assay: Meloidogyne incognita test; details: 336 h, lettuce, after 14 days, read-out: nematicidal efficacy (formation of galls)
How it was run: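 Active compound in acetone, diluted with water, added to sand-filled vessels with M. incognita eggs/larvae and lettuce seeds. After 14 days, efficacy scored by root gall formation: 100% = no galls, 0% = galls equal to untreated control.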

[2] = test system: Myzus persicae; assay: Myzus persicae spray test (Chinese cabbage leaf discs); details: foliar, 120 h, 500 g/ha, after 5-6 days, read-out: efficacy
How it was run: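 Chinese cabbage leaf discs infested with all stages of green peach aphid were sprayed with compound formulated in acetone/DMF and emulsifier-containing water. Efficacy in % was scored after 5-6 days, with 100% meaning all aphids killed and 0% none killed.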

[3] = test system: Phaedon cochleariae; assay: Phaedon cochleariae spray test; details: foliar, 168 h, Chinese cabbage leaf discs, larvae, after 7 days, read-out: efficacy
Protocol: Phaedon cochleariae—Spray Test
To produce a suitable preparation of active compound, 1 part by weight of active compound is dissolved using the specified parts by weight of solvent and made up with water containing an emulsifier concentration of 1000 ppm until the desired concentration is attained. To produce further test concentrations, the formulation is diluted with emulsifier-containing water.
After 7 days, the efficacy in % is determined. 100% means that all the beetle larvae have been killed; 0% means that no beetle larvae have been killed.

[4] = test system: Myzus persicae; assay: Myzus persicae oral test; details: 120 h, 20 ppm, oral uptake, after 5 days, read-out: efficacy
How it was run: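 Compound dissolved in acetone, diluted in water, then mixed 50:150 μl with IPL41 insect medium (33%+15% sugar). Mixed-population green peach aphids feed through a parafilm seal on the solution; mortality scored as % efficacy after 5 days (100% = all killed).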

| SMILES | pest or weed control at 20 ppm [1] [%] | pest or weed control at 500 g/ha [2] [%] | pest or weed control at 500 g/ha [3] [%] | pest or weed control at 20 ppm [4] [%] |
| --- | --- | --- | --- | --- |
| Cn1cc(C(=O)NS(=O)(=O)c2ccc(Cl)cc2I)nc1-c1c(F)cccc1F [Example 439] | 90 | 90 | 100 | 100 |
| CSc1ccccc1S(=O)(=O)NC(=O)c1cn(C)c(-c2ccccc2Cl)n1 [Example 423] | 90 | 100 | 100 | 100 |
| Cc1ccccc1S(=O)(=O)NC(=O)c1nc(-c2c(F)cccc2F)c(C)n1C [Example 311] | 100 |  | 83 | 100 |
| Cc1ccc(F)cc1S(=O)(=O)NC(=O)c1cn(C)c(-c2cccc(Cl)c2Cl)n1 [Example 319] | 90 | 100 | 100 | 100 |
| Cn1cc(C(=O)NS(=O)(=O)c2cccc(Cl)c2I)nc1-c1c(F)cccc1F [Example 313] | 90 | 90 | 100 | 100 |
| Cc1ccc(Br)cc1S(=O)(=O)NC(=O)c1cn(C)c(-c2c(F)cccc2F)n1 [Example 398] | 90 | 90 | 100 | 100 |
| Cc1cccc(S(=O)(=O)NC(=O)c2cn(C)c(-c3c(F)cccc3F)n2)c1 [Example 176] | 100 | 90 | 83 | 90 |
| COc1cc(S(=O)(=O)NC(=O)c2cn(C)c(-c3ccccc3Cl)n2)c(C)cc1Br [Example 286] | 100 |  | 100 | 100 |
| COc1ccc(Cl)c(S(=O)(=O)NC(=O)c2cn(C)c(-c3ncccc3Cl)n2)c1 [Example 575] | 90 | 90 | 83 | 100 |
| Cc1c(S(=O)(=O)NC(=O)c2cn(C)c(-c3c(F)cccc3F)n2)sc2ccc(Cl)cc12 [Example 324] | 90 | 100 | 100 | 100 |
| Cc1ccc(S(=O)(=O)NC(=O)c2cn(C)c(-c3c(F)cccc3F)n2)c(Cl)c1 [Example 450] | 100 | 100 | 100 | 90 |
| Cn1cc(C(=O)NS(=O)(=O)c2cc(Br)ccc2Br)nc1-c1ccccc1Cl [Example 429] | 100 | 90 | 100 | 100 |
| Cn1cc(C(=O)NS(=O)(=O)c2ccc(F)cc2C(F)(F)F)nc1-c1c(F)cccc1F [Example 448] | 90 | 100 | 100 | 100 |
| Cc1c(Cl)cccc1S(=O)(=O)NC(=O)c1cn(C)c(-c2c(F)cccc2F)n1 [Example 316] | 90 | 90 | 100 | 100 |
| Cn1cc(C(=O)NS(=O)(=O)c2cc(Cl)ccc2Cl)nc1-c1c(F)cccc1F [Example 171] | 100 | 90 | 83 | 100 |
| CCc1ccc(Cl)cc1S(=O)(=O)NC(=O)c1cn(C)c(-c2ncccc2Cl)n1 [Example 583] | 90 | 100 | 100 | 100 |
| CCc1ccc(Cl)cc1S(=O)(=O)NC(=O)c1cn(C)c(-c2ccccc2Cl)n1 [Example 280] | 90 | 90 | 100 | 100 |
| Cc1cc(Br)ccc1S(=O)(=O)NC(=O)c1cn(C)c(-c2c(F)cccc2F)n1 [Example 446] | 90 | 90 | 100 | 100 |
| Cc1ccccc1S(=O)(=O)NC(=O)c1nc(-c2c(F)cccc2F)n(C)c1Cl [Example 552] | 90 | 90 | 83 |  |
| Cn1cc(C(=O)NS(=O)(=O)c2c(Cl)cccc2Cl)nc1-c1ccccc1Cl [Example 227] | 100 | 100 | 83 |  |

| SMILES | pest or weed control at 20 ppm [1] [%] | pest or weed control at 500 g/ha [2] [%] | pest or weed control at 500 g/ha [3] [%] | pest or weed control at 20 ppm [4] [%] |
| --- | --- | --- | --- | --- |
| Cn1cc(C(=O)NS(=O)(=O)c2cccc(Cl)c2)nc1-c1c(Cl)cccc1Cl [Example 42] | 100 | 100 | 100 |  |
| COc1ccc(Br)c(S(=O)(=O)NC(=O)c2cn(C)c(-c3ncccc3Cl)n2)c1 [Example 597] | 90 | 100 | 100 | 100 |
| Cc1cc(Br)ccc1S(=O)(=O)NC(=O)c1cn(C)c(-c2ccccc2Cl)n1 [Example 282] | 100 | 90 | 100 | 100 |
| Cc1cccc(Cl)c1S(=O)(=O)NC(=O)c1cn(C)c(-c2ncccc2F)n1 [Example 599] | 100 | 100 | 100 | 100 |
| Cc1ccc(S(=O)(=O)NC(=O)c2cn(C)c(-c3ccccc3Cl)n2)cc1 [Example 164] | 90 | 100 | 100 |  |
| Cc1cccc(F)c1S(=O)(=O)NC(=O)c1cn(C)c(-c2c(F)cccc2F)n1 [Example 363] | 90 | 100 | 100 | 100 |
| Cc1cc(C(=O)NS(=O)(=O)c2cc(Cl)ccc2Br)nn1-c1c(F)cccc1F [Example 294] | 100 | 100 | 100 | 100 |
| Cc1cccc(Cl)c1S(=O)(=O)NC(=O)c1cn(C)c(-c2cccc(Cl)c2Cl)n1 [Example 556] | 90 | 90 | 100 | 100 |
| Cc1cccc(C(F)(F)F)c1S(=O)(=O)NC(=O)c1cn(C)c(-c2c(F)cccc2F)n1 [Example 369] | 90 | 100 | 100 | 100 |
| Cc1cccc(C)c1S(=O)(=O)NC(=O)c1cn(C)c(-c2ncccc2Cl)n1 [Example 587] | 90 | 90 | 100 | 100 |
| Cc1ccc(Cl)c(S(=O)(=O)NC(=O)c2cn(C)c(-c3c(F)cccc3F)n2)c1Cl [Example 434] | 100 | 100 | 100 | 100 |
| Cc1cccc(C)c1S(=O)(=O)NC(=O)c1cn(C)c(-c2ncccc2F)n1 [Example 602] | 90 | 90 | 83 | 100 |
| Cc1cc(Cl)ccc1S(=O)(=O)NC(=O)c1cn(C)c(-c2c(F)cccc2F)n1 [Example 445] | 100 | 100 | 100 | 90 |
| Cc1ccccc1S(=O)(=O)NC(=O)c1nc(-c2ccccc2Cl)n(C)c1Cl [Example 205] | 100 |  | 100 | 100 |
| Cc1ccccc1S(=O)(=O)NC(=O)c1cn(C)c(-c2cccc3ccccc23)n1 [Example 216] | 90 |  | 100 | 100 |
| Cn1cc(C(=O)NS(=O)(=O)c2ccccc2Cl)nc1-c1c(F)cc(F)cc1F [Example 2] | 90 | 90 | 100 |  |
| Cn1c(-c2ccccc2Cl)nc(C(=O)NS(=O)(=O)c2ccccc2Cl)c1Cl [Example 221] | 100 |  | 100 | 100 |
| Cn1c(-c2c(F)cccc2F)nc(C(=O)NS(=O)(=O)c2ccccc2Cl)c1Cl [Example 550] | 90 | 90 | 100 |  |
| Cc1cccc(OC(F)(F)F)c1S(=O)(=O)NC(=O)c1cn(C)c(-c2c(F)cccc2F)n1 [Example 405] | 90 |  | 100 | 100 |
